Each structure is given as a SMILES string. pIC50: −log10 of the molar value. Calls of active or inactive are those of the source. The calls are words filed in the database; no cut-off is given here.

Consider one molecule from ChEMBL document CHEMBL4138216, “Design, synthesis and structure-activity relationship of a focused library of β-phenylalanine derivatives as novel eEF2K inhibitors with apoptosis-inducing mechanisms in breast cancer” (Eur J Med Chem, 2018).

The subject of assay [1] is MDA-MB-436. As to the kind of experiment: Antiproliferative activity against human MDA-MB-436 cells assessed as decrease in cell viability after 24 hrs by MTT assay. Format: functional, cell-based. Conditions: MDA-MB-436, 24 h. In general terms: Formazan colour is commonly taken as a measure of viable cells.
Assay [2] relates to MDA-MB-436. The experiment in a line: Induction of apoptosis in human MDA-MB-436 cells assessed as membrane blebbing by phase contrast microscopy. It counts as functional, cell-based.
In assay [3] the test system is MDA-MB-436. As to the kind of experiment: Induction of apoptosis in human MDA-MB-436 cells assessed as formation of apoptotic bodies by phase contrast microscopy. Format: functional, cell-based.
Assay [4] concerns MDA-MB-231. The experiment in a line: Induction of apoptosis in human MDA-MB-231 cells assessed as DNA condensation after 12 to 36 hrs by Hoechst 33258 staining-based fluorescence assay. It counts as functional, cell-based.
For assay [5], the system named is MDA-MB-231. The experiment in a line: Induction of apoptosis in human MDA-MB-231 cells assessed as downregulation of Bcl-2 expression after 12 to 36 hrs by Western blot method. It counts as functional, cell-based. (In general: In western blotting, separated proteins are transferred to a membrane and probed.)
Assay [6] relates to MDA-MB-436. The experiment in a line: Induction of apoptosis in human MDA-MB-436 cells assessed as increase in caspase-8 cleavage after 12 to 36 hrs by Western blot method. Format: functional, cell-based.
For assay [7], the system named is MDA-MB-231. The experiment in a line: Induction of apoptosis in human MDA-MB-231 cells assessed as increase in PARP cleavage after 12 to 36 hrs by Western blot method. Format: functional, cell-based.
The subject of assay [8] is MDA-MB-231. The experiment in a line: Antitumor activity against human MDA-MB-231 cells xenografted in ig dosed BALB/c nude mouse assessed as tumor growth inhibition administered once a day measured every 3 days for 24 days during compound dosing. Format: functional, organism-based. (In general: A xenograft is tissue or cells of one species grown in another, often human tumour cells in immunodeficient mice.)

Assay [9] has as its system MDA-MB-436. As to the kind of experiment: Antitumor activity against human MDA-MB-436 cells xenografted in ig dosed BALB/c nude mouse assessed as tumor growth inhibition administered once a day measured every 3 days for 24 days during compound dosing. Format: functional, organism-based.
The subject of assay [10] is MDA-MB-231. The experiment in a line: Antiproliferative activity against human MDA-MB-231 cells xenografted in BALB/c nude mouse at 25 to 100 mg/kg, ig qd measured after 24 days by Ki-67 staining-based assay. It counts as functional, organism-based.
In assay [11] the test system is MDA-MB-231. As to the kind of experiment: Induction of apoptosis in human MDA-MB-231 cells xenografted in BALB/c nude mouse assessed as increase in PARP cleavage at 25 to 100 mg/kg, ig qd measured after 24 days by Western blot method. Format: functional, organism-based.
The subject of assay [12] is MDA-MB-231. The experiment in a line: cells. As to conditions: Homo sapiens, MDA-MB-231, 24 h.
Description: Antiproliferative activity against human MDA-MB-231 cells assessed as decrease in cell viability after 24 hrs by MTT assay

`N#Cc1ccc(S(=O)(=O)NC(CC(=O)O)c2ccc(Cl)cc2Cl)cc1` (configuration not stated): the values for the pIC50 in the assay with MDA-MB-436 [1] and in the assay with MDA-MB-231 [12] were 4.70 and 4.90, respectively. Besides, the outcome in the assay on MDA-MB-436 [2], with MDA-MB-436 [3], in the assay with MDA-MB-231 [4], with MDA-MB-231 [5], with MDA-MB-436 [6] and in the assay on MDA-MB-231 [7] was Active. The outcome with MDA-MB-231 [10] and in the assay on MDA-MB-231 [11] was Active. The TGI result in the assay on MDA-MB-231 [8] and with MDA-MB-436 [9] was “Dose-dependent effect” in each case.
